Reference: patent publication US12492215B2, “Pyrrolotriazine compounds acting as MNK inhibitor” (JUMBO DRUG BANK CO., LTD., priority 2019, dated 2025)
Structures can show the parent of a compound that is named as a salt.

How the values were obtained:
[1] = molecular target: MNK1 (h) protein kinase (Homo sapiens (Human), UniProt Q9BUB5); test: Inhibitory activity against MNK1 protein kinase (Kinase HotSpot Profiling, 33P-ATP); format: biochemical; settings: 120 min room temperature
Method: 2. In Vitro Evaluation of Inhibitory Activity of Compound Disclosed Herein Against MNK1 Protein Kinase
Purpose of experiment: to test the inhibitory activity of the compound against MNK1 protein kinase
Experimental materials: assay buffer: 20 mM 4-hydroxyethylpiperazine ethanesulfonic acid (pH 7.5), 10 mM magnesium chloride, 1 mM ethylene glycol-bis-(2-aminoethylether)-N,N,N′,N′-tetraacetic acid, 0.02% polyoxyethylene lauryl ether, 0.02 mg/mL bovine serum albumin, 0.1 mM sodium vanadate, 2 mM dithiothreitol, and 1% DMSO.
Experimental operation: Mnk1 protein kinase inhibitory activity assays were performed using the Kinase HotSpot Profiling service from Reaction Biology Corp. The substrate was added to a freshly prepared buffer, followed by addition of MNK1 (h). The mixture was stirred homogeneously. Serially diluted DMSO solution containing the compounds to be tested (3-fold serial dilution, starting from 3 μM) was added by using Echo550, and then ^33P-ATP (final intensity of radioactivity: 0.01 μCi/μl) was added to initiate the reaction. The mixture was pre-incubated at room temperature for 120 min. […] The concentration of the radioactive phosphorylated substrate remaining on the filter paper was measured.
The protein kinase inhibitory activity of the compound was expressed as a percentage of the residual protein kinase activity relative to the blank substrate (DMSO alone). […]

[2] = system: eIF4E phosphorylation of HCT116 cell strain; test: Inhibition of eIF4E phosphorylation in HCT116 cell strain (AlphaLISA p-eIF4E Ser209); format: cell-based; settings: Homo sapiens, HCT-116; HCT116 cells, 3 h incubation
Text: 3. In Vitro Evaluation of Inhibitory Activity of Compounds Disclosed Herein Against eIF4E Phosphorylation Purpose of experiment: to test the inhibition (IC50) of the compounds against eIF4E phosphorylation of HCT116 cell strain. Experimental materials: HCT116 cells (ATCC), RPM11640 medium (Life technology), fetal bovine serum (Hyclone), double antibodies (penicillin, streptomycin) (Millipore), phosphate buffer (Corning), 384-well cell plate (PerkinElmer), and AlphaLISA® SureFire® Ultra™ p-eIF4E (Ser209) Assay Kit (PerkinElmer). Experimental operation: HCT116 cells were digested to make a cell suspension, which was then plated in a 96-well plate. The cell plate was then placed in an incubator for overnight incubation. Compounds were diluted to corresponding concentrations and added to the cell plate, and the resulting mixture was incubated for 3 h. The cells were subsequently lysed with a lysis buffer, and the lysate was transferred to a 384-well plate. A mixed receptor was freshly prepared according to the kit instructions and added to the 384-well plate, and the mixture was incubated at room temperature for 1 h. Then a mixed donor was freshly prepared according to the kit instructions and added to the 384-well plate, and the resulting mixture was incubated at room temperature for 1 h. The signals were read on EnVision using the standard AlphaLISA program, curves were fitted using Graphpad prism, and the IC50 values were calculated.

[3] = Pharmacokinetic evaluation in mice; format: in vivo, CD-1 mice; settings: male, CD-1, mouse, plasma; for bioavailability: PO 2 mg/kg vs IV 0.5 mg/kg, read-out: Bioavailability F; for AUC(0-t) / half-life: PO 2 mg/kg; for AUC(0-t): read-out: Area under the plasma drug concentration-time curve AUC0-last PO; for Cmax: intragastric 2 mg/kg, intravenous 0.5 mg/kg (route of Cmax not given), read-out: Peak concentration Cmax; for clearance / Vd: intravenous injection 0.5 mg/kg; for clearance: read-out: Clearance CL; for Vd: read-out: Tissue distribution Vdss; for half-life: read-out: Half-life T1/2 (PO) (converted)
Method: 4. Pharmacokinetic Evaluation of Compounds Disclosed Herein
Purpose of experiment: to test pharmacokinetic parameters of the compounds in CD-1 mice
Experimental materials: CD-1 mice (Male, 7-9 weeks age, Shanghai Sippe-Bk Lab Animal Co., Ltd.)
Experimental operation: pharmacokinetic characteristics of the compounds after intravenous injection and oral administration for the rodent were tested by a standard scheme, and the candidate compounds were each formulated into a clear solution or a uniform suspension in the experiments and intravenously administered and intragastrically administered once to a mouse. The vehicle for the intravenous injection and oral administration was […] hydroxypropyl-β-cyclodextrin aqueous solution or normal saline solution. […] Two mice were subjected to intravenous injection at a dose of 0.5 mg/kg, and plasma samples were collected at 0 h (before administration) and 0.083, 0.25, 0.5, 1, 2, 4, 8, 12 and 24 h (after administration); the other two mice were subjected to intragastric administration at a dose of 2 mg/kg, and plasma samples were collected at 0 h (before administration) and 0.25, 0.5, 1, 2, 4, 8, 12 and 24 h (after administration). Whole blood samples within 24 h were collected and each centrifuged at 3000 g for 10 min. The supernatant was separated to obtain plasma sample, and acetonitrile solution containing internal standard whose volume is […] that of the plasma sample was added to precipitate the protein. The mixture was vortexed at 800 rpm for 10 min, and then 1 μL of supernatant was taken for injection. Plasma concentrations were quantitatively analyzed by LC-MS/MS method, and pharmacokinetic parameters, such as peak concentration (Cmax), clearance (CL), half-life (T1/2), tissue distribution (Vdss), area under the plasma drug concentration-time curve (AUC0-last) and bioavailability (F), were calculated.

[4] = molecular target: MNK2 (h) protein kinase (Homo sapiens (Human), UniProt Q9HBH9); test: Inhibitory activity against MNK2 protein kinase (KinaseProfiler, 33P-ATP filter-binding); format: biochemical; settings: myelin basic protein substrate, 40 min room temperature
Chain of MNK2 (h) protein kinase (Q9HBH9 whole entry): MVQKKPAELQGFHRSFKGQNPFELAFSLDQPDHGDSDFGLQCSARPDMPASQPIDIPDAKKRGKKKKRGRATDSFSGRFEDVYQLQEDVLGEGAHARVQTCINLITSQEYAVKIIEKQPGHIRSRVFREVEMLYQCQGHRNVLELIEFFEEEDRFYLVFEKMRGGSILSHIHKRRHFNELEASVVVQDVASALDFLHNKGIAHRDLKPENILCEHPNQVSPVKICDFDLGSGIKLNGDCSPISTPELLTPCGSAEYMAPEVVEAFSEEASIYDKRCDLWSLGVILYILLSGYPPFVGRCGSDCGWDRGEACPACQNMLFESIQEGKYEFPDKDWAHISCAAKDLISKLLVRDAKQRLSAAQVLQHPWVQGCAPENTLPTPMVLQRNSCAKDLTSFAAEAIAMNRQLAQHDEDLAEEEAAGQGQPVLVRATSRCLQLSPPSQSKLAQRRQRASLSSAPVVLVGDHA
Method: 1. In Vitro Evaluation of Inhibitory Activity of Compounds Disclosed Herein Against MNK2 Protein Kinase
Purpose of experiment: to test the inhibitory activity of the compounds against MNK2 protein kinase
Experimental materials: assay buffer: 8 mM 3-(N-morpholino)propanesulfonic acid, 0.2 mM disodium ethylenediaminetetraacetate, 0.01% polyoxyethylene lauryl ether, 5% glycerol, 0.1% β-mercaptoethanol and 1 mg of bovine serum albumin
Experimental operation: Mnk2 protein kinase inhibitory activity assays were performed using the KinaseProfiler™ service from Eurofins Pharma Discovery Services UK Limited. Serially diluted DMSO solutions containing the compounds to be tested (3-fold serial dilution, starting from 10 μM), MNK2 (h) protein kinase and 0.33 mg/mL myelin basic protein were added to a freshly prepared buffer (pH 7.0), and then stirred homogeneously. The reaction was initiated by adding a mixture of ^33P-ATP (intensity of radioactivity: 10 μCi/μL) and 10 mM magnesium acetate. After the resulting mixture was reacted at room temperature for 40 min, the reaction was terminated by adding phosphoric acid to dilute to a concentration of 0.5%. 10 μL of the reaction solution was filtered using a P30 filtermat, and then the filtermat was washed four times with 0.425% phosphoric acid for 4 min each, followed by washing once with methanol. After drying, the intensity of radioactivity was determined using the Filter-Binding method.
The protein kinase inhibitory activity of the compounds was expressed as a percentage of the residual protein kinase activity relative to the blank substrate (DMSO alone). The Prism4 software package (GraphPad) was used to calculate IC50 values and fit curves.

[5] = system: CT-26 mouse colon cancer graft tumor; test: In vivo efficacy in CT-26 mouse graft tumor; design: species or system mice; settings: QD, 21-day treatment, CT-26 graft tumor
Method: 5. In Vivo Efficacy Experiment of Compound Disclosed Herein for CT-26 Mouse Graft Tumor
Purpose of experiment: to determine in vivo efficacy of compound for CT-26 mouse graft tumor
Experimental materials: CT-26 cells, RMPI-1640 medium containing 10% fetal bovine serum, and mice (female, Shanghai Sippe-Bk Lab Animal Co., Ltd.)
Experimental operation: CT-26 cells were cultured in RMPI-1640 medium containing 10% fetal bovine serum in an incubator at 37° C./5% CO2. Tumor cells were subcultured, and after an appropriate concentration was reached and the tumor cells were in the logarithmic growth phase, the tumor cells were collected, counted and then resuspended in DPBS (phosphate buffered solution), and the concentration of the cell suspension was adjusted to 3×10^6/mL for inoculation.
Establishment of mouse colon cancer graft tumor: cells were collected and adjusted to a concentration of 3×10^6 cells/mL (resuspended in DPBS to obtain cell suspension), and 0.1 mL of tumor cells was injected subcutaneously at the right dorsal side of the mice under sterile conditions, and 3×10^5 cells were inoculated for each mouse. After the tumor grew to a certain size, the length (a) and the width (b) of the tumor was measured by using a digital vernier caliper, and the tumor volume (TV) was calculated, wherein the calculation formula is as follows: TV=a×b^2/2.
CT-26 tumor cell inoculation: on the day of inoculation, animals were grouped (8 animals for each) according to the body weight and subjected to drug administration separately, and the day of inoculation was considered as D0. When the tumor size reached about 60 mm^3, the animals in the antibody groups were grouped according to the tumor size and the body weight. The body weight and tumor size of the animals were measured three times a week during the experiment, while clinical symptoms of the animals were observed and recorded daily, and for each administration, reference was made to the animal body weight measured most recently. The inhibitory effect of the compound on colon cancer graft tumor in mice was determined after 21-day treatment at a dose of 30 mg/Kg QD (once daily), 90 mg/Kg QD (once daily) and 200 mg/Kg QD (once daily), and the specific information is shown in Table 5 below.
The calculation formula of T/C (%) is as follows: T/C (%)=(TRTV/CRTV)×100%. TRTV is the relative tumor volume of the treatment group, and CRTV is the relative tumor volume of the negative control group; TGI (%)^a=(1−average tumor volume at the end of administration of a treatment group/average tumor volume at the end of treatment of the vehicle control group)×100%.

[6] = background statement; cited from earlier work
[7] = system: expression of PD-1, LAG3 and IL-10; settings: background statement; cited from earlier work

Chain of MNK1 (h) protein kinase (Q9BUB5 whole entry): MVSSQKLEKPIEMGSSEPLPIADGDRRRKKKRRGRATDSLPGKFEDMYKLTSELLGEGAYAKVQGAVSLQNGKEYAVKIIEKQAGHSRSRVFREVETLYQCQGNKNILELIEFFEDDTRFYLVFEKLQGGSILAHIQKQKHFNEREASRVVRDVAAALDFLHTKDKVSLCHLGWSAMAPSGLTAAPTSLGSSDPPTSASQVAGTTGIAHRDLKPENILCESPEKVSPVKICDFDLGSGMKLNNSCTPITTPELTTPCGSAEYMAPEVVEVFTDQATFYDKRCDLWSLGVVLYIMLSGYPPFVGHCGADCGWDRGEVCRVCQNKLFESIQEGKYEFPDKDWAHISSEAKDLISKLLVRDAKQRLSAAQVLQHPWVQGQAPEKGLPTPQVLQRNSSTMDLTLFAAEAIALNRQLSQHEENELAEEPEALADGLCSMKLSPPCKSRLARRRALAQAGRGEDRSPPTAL

SMILES | IC50 [2] | IC50 [4] | other results
Cc1cc(Nc2ncnn3cc(OCCN4CCCC4)c(C)c23)c(=O)n2c1C(=O)NC21CCCCC1 [Compound 1 (hydrochloride)] | 3.46 nM | 22 nM | IC50 [1]: 54.6 nM; bioavailability [3]: 32.5%; AUC(0-t) [3]: 0.956 µM·h; Cmax [3]: 35.9 nM; clearance [3]: 33.3 mL/min/kg; Vd [3]: 14.1 L/kg
Cc1cc(Nc2ncnn3cc(OCCN4CCCC4)c(C)c23)c(=O)n2c1C(=O)NC21CCNCC1 [Compound 2 (hydrochloride)] | – | 63 nM | –
Cc1cc(Nc2ncnn3cc(OCCN4CCCC4)c(C)c23)c(=O)n2c1C(=O)NC21CCN(C)CC1 [Compound 3 (hydrochloride)] | – | 39 nM | –
Cc1cc(Nc2ncnn3cc(OCCN4CCCC4)c(C)c23)c(=O)n2c1C(=O)NC21CCC(F)(F)CC1 [Compound 9 (hydrochloride)] | 12 nM | 30 nM | –
Cc1cc(Nc2ncnn3cc(OCC4CCNC4)c(C)c23)c(=O)n2c1C(=O)NC21CCCCC1 (stereo not shown) [Compound 15 (hydrochloride)] | – | 28 nM | –
Cc1cc(Nc2ncnn3cc(OCC4CCN(C)C4)c(C)c23)c(=O)n2c1C(=O)NC21CCCCC1 (stereo not shown) [Compound 16 (hydrochloride)] | 2.8 nM | 27 nM | –
Cc1cc(Nc2cc(N)ncn2)c(=O)n2c1C(=O)NC21CCCCC1 [eFT508] | – | – | safety in phase I clinical trial [6]: good safety; effect on expression of PD-1, LAG3 and IL-10 [7]: selectively inhibit the expression of PD-1, LAG3 and IL-10

The next lines start with results.

IC50 [2] | IC50 [4] | SMILES | other results
14 nM | 25 nM | Cc1c(OCCN2CCCC2)cn2ncnc(Nc3ccc4n(c3=O)C3(CCCCC3)NC4=O)c12 [Compound 4 (hydrochloride)] | –
9.5 nM | 26 nM | Cc1c(OCCN2CCCC2)cn2ncnc(Nc3cc(F)c4n(c3=O)C3(CCCCC3)NC4=O)c12 [Compound 5 (hydrochloride)] | –
0.66 nM | 21 nM | Cc1c(OCCN2CCCC2)cn2ncnc(Nc3cc(Cl)c4n(c3=O)C3(CCCCC3)NC4=O)c12 [Compound 6 (hydrochloride)] | –
6.5 nM | 17 nM | Cc1cc(Nc2ncnn3cc(OCCN4CCCC4)c(C)c23)c(=O)n2c1C(=O)NC21CCCC1 [Compound 7 (hydrochloride)] | AUC(0-t) [3]: 1.39 µM·h; half-life [3]: 3.2 h; Cmax [3]: 131 nM
24 nM | 33 nM | Cc1cc(Nc2ncnn3cc(OCCN4CCCC4)c(C)c23)c(=O)n2c1C(=O)NC2(C)C [Compound 8 (hydrochloride)] | –
3.1 nM | 8 nM | Cc1c(OCCN2CCCC2)cn2ncnc(Nc3cc(Cl)c4n(c3=O)C3(CCCC3)NC4=O)c12 [Compound 10 (hydrochloride)] | –
18.9 nM | 28 nM | Cc1cc(Nc2ncnn3cc(OCCN4CCC(F)(F)C4)c(C)c23)c(=O)n2c1C(=O)NC21CCCCC1 [Compound 11] | bioavailability [3]: 14.2%; AUC(0-t) [3]: 0.405 µM·h; half-life [3]: 12.1 h; Cmax [3]: 104 nM; clearance [3]: 21.8 mL/min/kg; Vd [3]: 2.53 L/kg
8.6 nM | – | Cc1cc(Nc2ncnn3cc(OCCN4CCC(F)(F)C4)c(C)c23)c(=O)n2c1C(=O)NC21CCCC1 [Compound 12] | T/C % ([5]; 30 mg/Kg): 36.43%; TGI % ([5]; 30 mg/Kg): 63.57%; T/C % ([5]; 90 mg/Kg): 31.11%; TGI % ([5]; 90 mg/Kg): 68.89%; T/C % ([5]; 200 mg/Kg): 33.31%; TGI % ([5]; 200 mg/Kg): 68.51%
10.5 nM | 14 nM | Cc1cc(Nc2ncnn3cc(OC[C@H](C)N4CCCC4)c(C)c23)c(=O)n2c1C(=O)NC21CCCC1 [Compound 13] | –
